Experiments:
Type in all cases: in vivo
Malachium aquaticum = assay: Composition activity test, post-emergence foliage spray; settings: B 7.5 g a.i./ha
Method: (§1) are as follows, and the others were purchased from reagent companies. The technical materials were all dissolved in acetone and diluted with an aqueous solution containing 0.1% emulsifier Tween-80. The dilution is performed as required.
(§2) Weeds were cultivated by a pot culture method. […] Full and uniform weed seeds were selected, soaked in warm water at 25° C. for 6 hours, and germinated in a 28° C. biochemical incubator (darkness). The weed seeds that had just germinated were evenly placed on the surface of the soil and then covered with 0.5-1 cm soil according to the sizes of seeds.
(§3) The culture was carried out in a controllable sunlight greenhouse at 20 to 30° C., in natural light, and relative humidity of 57% to 72%.
(§4) 3 pots with 20 weed seeds per pot were treated in one treatment with 4 replications per treatment.
(§5) The agents were used for only once in the experiment. In the stage of weeds with 1.5-2 leaves, the weeds were thinned out to maintain 10 weeds per pot and 30 weeds for each treatment, then continued to be cultured to Conyza Canadensis 10 cm in height, other weeds 3-4 leaves stage and treated.
(§6) The well-cultured weeds were evenly placed on a platform with an area of 0.5 m^2, and a solution of agents was sprayed on the stems and leaves thereof by the 3WP-2000-type walking spray tower at a dosage of 450 kg/ha and at a spray pressure of 0.3 MPa. After all the solution was sprayed, the valve was closed. After 30 seconds, the door of the spray tower was opened, and the nutritional bowl was taken out. Then the valve was opened, and the spray tube was cleaned by spraying 50 ml of water. After the treatment, the weeds were routinely cultured in a greenhouse.
(§7) A method for investigating absolute number was employed, wherein whole seedlings of survival weeds were cut off with a blade along the soil surface, and the fresh weight of the weeds was weighed with an analytical balance. For dead weeds, the fresh weight thereof was zero.
(§8) The investigation was performed after 21 days of the treatment for only once.
(§9) An optimum ratio of the two active ingredients was determined by the actual control effect, characteristics of herbicides, and balance of a corresponding formula. Wherein, in the formula, X represented the fresh weight inhibition rate of the active ingredient A in a dosage of P, and Y represented the fresh weight inhibition rate of the active ingredient B in a dosage of Q. The statistical results were shown in the table 6.

Leptochloa chinensis = assay: Weed control effect evaluation in rice field; settings: rice field pot, 30 g/ha, 14 days after treatment
From the text: (§10) The activity level criteria for plant damage (i.e., growth control rate) are as follows:
(§11) Rice field soil was loaded into a 1/1,000,000 ha pot. The seeds of Echinochloa crusgalli. Scirpus juncoides. Bidens tripartita L., Monochoria vaginalis, and Leptochloa chinensis were sowed and gently covered with soil, then left to stand still in greenhouse in the state of 0.5-1 cm of water storage. The tuber of Sagittaria trifolia was planted in the next day or 2 days later. It was kept at 3-4 cm of water storage thereafter. The weeds were treated by dripping the WP or SC water diluents prepared according to the common preparation method of the compounds of the present invention with pipette homogeneously to achieve specified effective amount when Echinochloa crusgalli. Scirpus juncoides, Bidens tripartita L., Monochoria vaginalis, and Leptochloa chinensis reached 0.5 leaf stage and Sagittaria trifolia reached the time point of primary leaf stage.
(§12) The fertility condition of Echinochloa crusgalli. Scirpus juncoides. Bidens tripartita L., Monochoria vaginalis, Leptochloa chinensis and Sagittaria trifolia 14 days after the treatment of the compound of the invention and the fertility condition of rice 21 days after the treatment of the compound of the invention respectively with the naked eye. Evaluate the weed control effect with the above activity standard level. Many compounds show excellent activity and selectivity.

Monochoria vaginalis = assay: Weed control effect evaluation in rice field; settings: rice field pot, 30 g/ha, 14 days after treatment
From the text: as §10, §11, §12

Scirpus juncoides = assay: Weed control effect evaluation in rice field; settings: rice field pot, 30 g/ha, 14 days after treatment
From the text: as §10, §11, §12

Rice = assay: Transplanted rice safety evaluation; settings: transplanted japonica rice, 30 g/ha, 21 days after treatment
Method: as §10
In addition, the rice field soil that loaded into the 1/1,000,000 ha pot was leveled to keep water storage at 3-4 cm depth. The 5 leaf stage rice (japonica rice) was transplanted at 3 cm of transplanting depth the next day. The compound of the present invention was treated by the same way after 5 days of transplantation.
as §12

[1] = test system: Echinochloa caudata Roshev.; assay: Composition activity test, post-emergence foliage spray
Method: as §1, §2, §3, §4, §5, §6, §7, §8, §9

## CCOC(=O)c1cnn(C)c1S(=O)(=O)NC(=O)Nc1nc(OC)cc(OC)n1 [pyrazosulfuron-ethyl, reference compound]
Malachium aquaticum
  Control effect (%) of B applied alone (B): 35.7%
Leptochloa chinensis
  activity level (weed control effect) Leptochloa chinensis: 2 (Level 2: growth control rate is greater than or equal to 20% and less than 40%)
Monochoria vaginalis
  activity level (weed control effect) Monochoria vaginalis: 2 (Level 2: growth control rate is greater than or equal to 20% and less than 40%)
Scirpus juncoides
  activity level (weed control effect) Scirpus juncoides: 1 (Level 1: growth control rate is greater than or equal to 5% and less than 20%)
Rice
  plant damage level Rice: 1 (Level 1: growth control rate is greater than or equal to 5% and less than 20%)

## Cc1nn(C)cc1C(=O)Oc1c(C(=O)c2ccc(C(F)(F)F)cc2S(C)(=O)=O)c(C)nn1C [shuangzuocaotong]
[1]; B 15 g a.i./ha
  Control effect (%) of B applied alone (B): 35.9%

## CS(=O)(=O)c1ccc(C(=O)C2C(=O)CCCC2=O)c(Cl)c1COCC1CCCO1 (stereo not drawn) [tefuryltrione]
[1]; B 30 g a.i./ha
  Control effect (%) of B applied alone (B): 21.5%

## CS(=O)(=O)c1ccc(C(=O)C2C(=O)CCCC2=O)c(Cl)c1COCC(F)(F)F [tembotrione]
[1]; B 15 g a.i./ha
  Control effect (%) of B applied alone (B): 31.7%

## Cc1c(C(=O)c2cnn(C)c2O)ccc(S(C)(=O)=O)c1C1=NOCC1 [topramezone]
[1]; B 7.5 g a.i./ha
  Control effect (%) of B applied alone (B): 38.5%

Reference: patent US20230111310A1, “CARBOXYLIC ACID DERIVATIVE-SUBSTITUTED IMINO ARYL COMPOUND, PREPARATION METHOD THEREFOR, HERBICIDAL COMPOSITION AND USE THEREOF” (Qingdao Kingagroot Chemical Compound Co., Ltd., priority 2020, published 2023)
